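Interpolation was linear, between the two tested concentrations surrounding the appropriate level; five concentrations were tested over 48 hours in 96-well plates. GI50: concentration for 50% inhibition of growth.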 Activity calls are given as the source filed them. Rule as the data show it: active = GI50 up to about 1.1 µM and inactive = higher.
Key:
Assay in all cases: inhibition of tumour cell growth, NCI panel, 48 h
BT-549 = system: BT-549
SF-268 = system: SF-268
OVCAR-4 = system: OVCAR-4
NCI-H226 = system: NCI-H226
DU-145 = system: DU-145
MDA-MB-231 = system: MDA-MB-231
HCT-116 = system: HCT-116
KM12 = system: KM12
MDA-N = system: MDA-N
ACHN = system: ACHN
CAKI-1 = system: CAKI-1
SF-295 = system: SF-295
EKVX = system: EKVX
HT-29 = system: HT-29
NCI/ADR-RES = system: NCI/ADR-RES
SK-OV-3 = system: SK-OV-3
A549 = system: A549
SR = system: SR
A498 = system: A498

SMILES	GI50 (BT-549)	GI50 (SF-268)	GI50 (OVCAR-4)	GI50 (NCI-H226)	GI50 (DU-145)	GI50 (MDA-MB-231)	GI50 (HCT-116)	GI50 (KM12)	GI50 (MDA-N)	GI50 (ACHN)	GI50 (CAKI-1)	GI50 (SF-295)	GI50 (EKVX)	GI50 (HT-29)	GI50 (NCI/ADR-RES)	GI50 (SK-OV-3)	GI50 (A549)	GI50 (SR)	GI50 (A498)
O=C1C(Cl)=C(Nc2ccc(S(=O)(=O)Nc3ccccn3)cc2)C(=O)c2ccccc21	14.4 µM (inactive)	8.2 µM (inactive)	17.3 µM (inactive)	20.7 µM (inactive)	7.91 µM (inactive)	6.89 µM (inactive)	6.24 µM (inactive)	13.1 µM (inactive)	6.46 µM (inactive)	10.6 µM (inactive)	16.8 µM (inactive)	15.3 µM (inactive)	9.4 µM (inactive)	7.5 µM (inactive)	9.93 µM (inactive)	17 µM (inactive)	18.7 µM (inactive)	3.03 µM (inactive)	20.7 µM (inactive)
CCOC(=O)Nc1ccc(S(=O)(=O)Nn2cnnc2)cc1	53.5 µM (inactive)	83.2 µM (inactive)	17.5 µM (inactive)		> 100 µM (inactive)	76.6 µM (inactive)	30.1 µM (inactive)	36.2 µM (inactive)	22 µM (inactive)	81.3 µM (inactive)	47.1 µM (inactive)	31.5 µM (inactive)	> 100 µM (inactive)	20.3 µM (inactive)	37.1 µM (inactive)	62.7 µM (inactive)	60.4 µM (inactive)	23.9 µM (inactive)	27.2 µM (inactive)
COc1cc2c(c(OC)c1OC)-c1ccc(SC)c(=O)cc1[C@@H](O)CC2	0.00168 µM (active)	0.00128 µM (active)	> 1 µM (active)	0.000703 µM (active)	0.000665 µM (active)	0.00115 µM (active)	0.000381 µM (active)	0.000234 µM (active)	0.000121 µM (active)	0.0011 µM (active)	0.00166 µM (active)	0.000225 µM (active)	0.000748 µM (active)	0.000294 µM (active)	0.00253 µM (active)	0.000392 µM (active)	0.000895 µM (active)	0.00258 µM (active)	0.0305 µM (active)
O=C(O)/C=N/NC(=S)NC1CCCCC1	> 100 µM (inactive)		> 100 µM (inactive)	> 100 µM (inactive)	> 100 µM (inactive)	> 100 µM (inactive)	> 100 µM (inactive)	> 100 µM (inactive)	> 100 µM (inactive)	> 100 µM (inactive)	> 100 µM (inactive)	> 100 µM (inactive)	> 100 µM (inactive)	> 100 µM (inactive)	> 100 µM (inactive)	> 100 µM (inactive)	> 100 µM (inactive)	> 100 µM (inactive)	> 100 µM (inactive)
S=C1NNC(=S)NN1	0.522 µM (active)	0.387 µM (active)	> 1 µM (active)	> 1 µM (active)	0.316 µM (active)	> 1 µM (active)	0.23 µM (active)	> 1 µM (active)	> 1 µM (active)	0.582 µM (active)	0.225 µM (active)	0.219 µM (active)	> 1 µM (active)	0.23 µM (active)	> 1 µM (active)	> 1 µM (active)	> 1 µM (active)	0.239 µM (active)	> 1 µM (active)
Cc1ccc(CSC(=N)Nc2ccccc2)cc1C	22.3 µM (inactive)	17 µM (inactive)	16.1 µM (inactive)	20.9 µM (inactive)	20.7 µM (inactive)	16.2 µM (inactive)	16.6 µM (inactive)	19.5 µM (inactive)	18.9 µM (inactive)	33.3 µM (inactive)	19.9 µM (inactive)	25 µM (inactive)	26.4 µM (inactive)	19.1 µM (inactive)	20.4 µM (inactive)	24.8 µM (inactive)	28.3 µM (inactive)	19.5 µM (inactive)	16.6 µM (inactive)
CC(=O)NCCc1c(-c2[nH]c3ccccc3c2CCNC(C)=O)[nH]c2ccccc12	> 100 µM (inactive)	> 100 µM (inactive)	49.2 µM (inactive)	> 100 µM (inactive)	> 100 µM (inactive)	82.4 µM (inactive)	> 100 µM (inactive)		> 100 µM (inactive)	66.7 µM (inactive)	> 100 µM (inactive)	> 100 µM (inactive)	> 100 µM (inactive)	> 100 µM (inactive)	87.1 µM (inactive)	51.2 µM (inactive)	> 100 µM (inactive)	> 100 µM (inactive)	74.8 µM (inactive)
Cc1cc(=O)nc(S(=O)(=O)NC(=O)Nc2cccc(Cl)c2)[nH]1	> 100 µM (inactive)	> 100 µM (inactive)		> 100 µM (inactive)	> 100 µM (inactive)	> 68.9 µM (inactive)	> 100 µM (inactive)	14.7 µM (inactive)	> 100 µM (inactive)	> 100 µM (inactive)		16.2 µM (inactive)	> 100 µM (inactive)	> 100 µM (inactive)	> 100 µM (inactive)	> 100 µM (inactive)	> 100 µM (inactive)	> 100 µM (inactive)	> 100 µM (inactive)

From ChEMBL document CHEMBL1201862, “PubChem BioAssay data set” (2004)
